From article PMC3093745 (ACS Medicinal Chemistry Letters, 2011)

How the values were obtained:
HDAC3 = HDAC3 (Homo sapiens, UniProt O15379); test: HDAC3 in vitro homogeneous fluorogenic deacetylase assay; type: biochemical; details: read-out: IC50 HDAC3; SD in parentheses; duplicate; substrate MAZ1600 9 µM
MCF7 cells = test: Propidium iodide staining, cell cycle and cell death in MCF7 cells; type: cell-based; details: 1 µM, 48 hours, PI staining
HDAC1 = HDAC1 (Homo sapiens, UniProt Q13547); test: HDAC1 in vitro homogeneous fluorogenic deacetylase assay; type: biochemical; details: read-out: IC50 HDAC1; SD in parentheses; duplicate; substrate MAZ1600 21 µM
Chain of HDAC1 (Q13547 whole entry): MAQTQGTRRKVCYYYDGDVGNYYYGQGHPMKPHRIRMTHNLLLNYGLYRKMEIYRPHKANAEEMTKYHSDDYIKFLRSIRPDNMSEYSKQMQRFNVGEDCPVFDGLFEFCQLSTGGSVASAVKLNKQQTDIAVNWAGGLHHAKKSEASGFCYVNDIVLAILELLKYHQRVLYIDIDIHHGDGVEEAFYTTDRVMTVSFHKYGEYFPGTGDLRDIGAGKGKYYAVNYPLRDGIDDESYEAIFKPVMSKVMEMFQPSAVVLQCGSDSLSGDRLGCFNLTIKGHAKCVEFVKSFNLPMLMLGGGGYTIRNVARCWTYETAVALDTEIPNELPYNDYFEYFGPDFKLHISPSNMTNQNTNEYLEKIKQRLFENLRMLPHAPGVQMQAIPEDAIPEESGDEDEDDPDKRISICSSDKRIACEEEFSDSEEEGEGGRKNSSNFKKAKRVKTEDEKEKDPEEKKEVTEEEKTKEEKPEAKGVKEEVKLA

HDAC6 = molecular target: T1, HDAC6 (Homo sapiens, UniProt Q9UBN7); test: HDAC6 in vitro homogeneous fluorogenic deacetylase assay; type: biochemical; details: read-out: IC50 HDAC6; SD in parentheses; duplicate; substrate MAZ1600 9 µM
T1 sequence (Q9UBN7 1-1215): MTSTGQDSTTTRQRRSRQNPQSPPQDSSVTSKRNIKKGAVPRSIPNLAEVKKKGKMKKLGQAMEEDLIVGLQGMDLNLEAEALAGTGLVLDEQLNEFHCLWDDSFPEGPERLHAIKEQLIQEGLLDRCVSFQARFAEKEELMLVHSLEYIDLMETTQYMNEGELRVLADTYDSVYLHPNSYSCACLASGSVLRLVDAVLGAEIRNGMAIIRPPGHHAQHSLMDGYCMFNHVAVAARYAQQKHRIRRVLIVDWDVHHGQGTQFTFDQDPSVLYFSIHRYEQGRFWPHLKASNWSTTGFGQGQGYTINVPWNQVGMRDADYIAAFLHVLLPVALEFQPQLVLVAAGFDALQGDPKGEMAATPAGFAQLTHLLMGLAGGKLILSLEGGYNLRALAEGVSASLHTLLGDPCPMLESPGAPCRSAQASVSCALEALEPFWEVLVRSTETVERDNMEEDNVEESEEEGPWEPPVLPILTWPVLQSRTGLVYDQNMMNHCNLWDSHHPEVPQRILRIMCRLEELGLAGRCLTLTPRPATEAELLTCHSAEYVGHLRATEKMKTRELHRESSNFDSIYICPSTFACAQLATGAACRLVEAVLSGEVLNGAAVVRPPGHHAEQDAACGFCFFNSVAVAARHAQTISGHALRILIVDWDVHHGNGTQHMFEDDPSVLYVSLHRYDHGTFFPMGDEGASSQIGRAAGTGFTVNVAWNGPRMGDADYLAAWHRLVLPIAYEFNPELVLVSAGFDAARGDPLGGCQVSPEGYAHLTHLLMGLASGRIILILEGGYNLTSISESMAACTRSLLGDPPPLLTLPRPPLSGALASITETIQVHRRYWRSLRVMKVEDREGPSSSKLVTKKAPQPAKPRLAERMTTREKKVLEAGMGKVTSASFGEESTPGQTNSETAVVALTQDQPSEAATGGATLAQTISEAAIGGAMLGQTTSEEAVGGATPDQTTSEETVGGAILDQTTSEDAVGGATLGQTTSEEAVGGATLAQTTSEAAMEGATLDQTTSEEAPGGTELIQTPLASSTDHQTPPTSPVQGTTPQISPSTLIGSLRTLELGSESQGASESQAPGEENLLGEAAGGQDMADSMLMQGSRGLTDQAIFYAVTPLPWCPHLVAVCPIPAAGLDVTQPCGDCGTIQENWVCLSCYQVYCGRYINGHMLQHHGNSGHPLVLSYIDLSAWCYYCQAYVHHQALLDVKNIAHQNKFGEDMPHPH

HDAC2 = HDAC2 (Homo sapiens, UniProt Q92769); test: HDAC2 in vitro homogeneous fluorogenic deacetylase assay; type: biochemical; details: read-out: IC50 HDAC2; SD in parentheses; duplicate; substrate MAZ1600 22 µM
Chain of HDAC2 (Q92769 whole entry): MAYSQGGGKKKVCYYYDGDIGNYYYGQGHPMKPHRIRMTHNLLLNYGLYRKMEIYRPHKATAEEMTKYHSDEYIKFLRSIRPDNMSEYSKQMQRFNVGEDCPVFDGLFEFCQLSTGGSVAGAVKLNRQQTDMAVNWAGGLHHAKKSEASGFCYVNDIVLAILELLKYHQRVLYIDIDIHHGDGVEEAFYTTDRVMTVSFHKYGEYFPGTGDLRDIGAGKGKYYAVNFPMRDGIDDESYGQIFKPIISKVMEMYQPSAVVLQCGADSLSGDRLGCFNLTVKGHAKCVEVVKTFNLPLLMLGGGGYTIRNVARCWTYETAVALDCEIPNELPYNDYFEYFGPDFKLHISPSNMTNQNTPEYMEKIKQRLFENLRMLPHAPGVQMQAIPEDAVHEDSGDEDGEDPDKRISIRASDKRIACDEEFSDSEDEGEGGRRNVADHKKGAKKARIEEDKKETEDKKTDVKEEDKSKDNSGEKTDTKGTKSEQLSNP

Chain of HDAC3 (O15379 whole entry): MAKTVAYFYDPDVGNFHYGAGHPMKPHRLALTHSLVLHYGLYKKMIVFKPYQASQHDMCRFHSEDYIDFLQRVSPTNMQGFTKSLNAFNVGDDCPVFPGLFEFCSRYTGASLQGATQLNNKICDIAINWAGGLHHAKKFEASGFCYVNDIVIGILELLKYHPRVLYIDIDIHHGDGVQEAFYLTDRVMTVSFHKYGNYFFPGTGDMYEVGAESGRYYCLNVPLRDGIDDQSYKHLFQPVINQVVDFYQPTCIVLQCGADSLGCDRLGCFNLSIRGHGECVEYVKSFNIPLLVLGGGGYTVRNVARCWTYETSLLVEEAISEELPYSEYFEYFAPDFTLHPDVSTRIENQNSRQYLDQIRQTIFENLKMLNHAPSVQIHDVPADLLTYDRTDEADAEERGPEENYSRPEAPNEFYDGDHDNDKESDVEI
Chain of HDAC3 (Q9Y618 395-489 partner limits assumed): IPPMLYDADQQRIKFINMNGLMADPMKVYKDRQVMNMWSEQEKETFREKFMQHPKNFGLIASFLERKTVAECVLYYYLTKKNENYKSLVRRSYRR

**Q.** How did the IC50 (HDAC3) turn out when `O=C(CCCCCCC(=O)N[c-]1cccc1)NO.[Fe+2].c1cc[cH-]c1` [Compound 7, N^1-Hydroxy-N^8-ferrocenyloctanediamide] was run?
**A.** The IC50 was 18 nM.

**Q.** And the “cell cycle arrest and cell death” value (MCF7 cells)?
**A.** The value was “induced cell cycle arrest and cell death”.

**Q.** And the IC50 (HDAC1)?
**A.** The IC50 was 11 nM.

**Q.** What about the IC50 (HDAC6) of the same molecule?
**A.** The IC50 was 0.8 nM.

**Q.** And the IC50 (HDAC2)?
**A.** Its IC50 is 11 nM.
